# Data from patent US8119657B2, “Enantiomeric compositions of 2-amino-1-(2-isopropylpyrazolo[1,5-α]pyridin-3-yl)propan-1-one and related methods” (MediciNova, Inc., priority 2009, dated 2012).
# Entries after “also recorded” stand apart in the source; their conditions may differ. Marks after values point to notes of the source that are not given here.
# Key:
# [1] = test system: rat chronic constriction injury model of neuropathic pain; assay: Rat chronic constriction injury model of neuropathic pain (von Frey mechanical allodynia); assay type: in vivo; details: for in vivo activity in a rat model of neuropathic pain: dose not stated
# Description: The (S)- and the (R)-enantiomer of AV1013 were each evaluated in a rat chronic constriction injury model of neuropathic pain (see, Ledeboer et. al., Neuron Glia Biology, (2006), p 279-291), to determine whether differences in their activity could be observed.
# To induce allodynia, male Sprague-Dawley rats underwent chronic constriction injury (CCI) to the sciatic nerve as described by Bennett and Xie, Pain 1988; 33(1):87-107. The plantar surface of the hind paws was stimulated with von Frey filaments (Stoelting) to induce a withdrawal response by blinded personnel. The bending force of fiber required to induce a 50% withdrawal response was calculated following CCI surgery (pre-dosing baseline).
# Allodynic rats (N=5-6), received an oral administration of (S)-AV1013 (25 mg/kg), AV1013-R (100 mg/kg) or vehicle. Two hours post-dosing, 50% paw withdrawal threshold was determined by blinded testers using von Frey filaments. The 50% withdrawal threshold prior to CCI surgery, pre-dosing (10 days post-surgery), and 2 hours post-dosing are plotted in FIG. 3.
# Rolipram binding site = assay: Inhibition of binding at the Rolipram binding site; details: 10 uM
# [2] = Chiral and chemical stability in solution and on storage; assay type: physicochemical
# Description: Without ascribing to any particular theory, the present inventors believe that the facile separation of enantiomers using the N-protected racemate of AV1013 is probably due to the greater stability of the racemate as well as the separate enantiomers in protected form. […] Unstability also stems from the ability of the free base to self condense. Because self-condensation is promoted in concentrated solutions, it is desirable to avoid highly concentrated solutions of the free base form of optically active AV1013. Likewise, the free base form of racemic AV1013 or its hydrochloride salt are also unstable, precluding their use as precursors to obtaining (S)-AV1013 as a free base or its hydrochloride salt in high yield and/or high purity.
# Thus, it is often desirable to re-purify the de-protected product using purification techniques known in the art. For example, any one or more of the methods described above for separating chiral molecules, such as, chromatography (e.g., HPLC, GC, and SFC), crystallization, fractional crystallization, and the like may be used for re-purification. An exemplary method is recrystallization. Purification by recrystallization allows separation of the desired (S)-enantiomer in high purity, such that the overall reaction sequence including isolation of the desired (S)-enantiomer requires only a single chromatographic step (i.e., the chiral separation). Recrystallization can be carried out in any of a number of single or mixed solvent systems including alcohols, ethers, esters, nitriles, halogenated hydrocarbons, amides and aqueous mixtures thereof. Suitable solvents include methanol, ethanol, propanol, iso-propanol, acetone, tetrahyrofuran, methyl ethyl ketone, methyl isobutyl ketone, ethyl acetate, amyl acetate, acetonitrile, diethyl ether, methyl tert-butyl ether, dichloromethane, dichloroethane, chloroform, dimethylformamide, and combinations thereof. Illustrative mixed solvent systems used to recrystallize (S)-AV1013 are iso-propanol/methyl tert-butyl ether and ethanol/methyl tert-butyl ether.
# The five-step route provided a 15% overall yield of (S)-AV1013.HCl. The chiral separation, by SFC chromatography, is the only chromatographic step required. Hydrolysis of the N-protected (S)-AV1013, followed by recrystallization from iso-propanol/methyl tert-butyl ether provided (S)-AV1013.HCl in greater than 99% chemical purity and greater than 97% S-enantiomer (greater than 94% enantiomeric excess (ee)) by chiral HPLC, as determined from the equation ee=[|R−S^51÷(R+S)]×100 ee=[|R−S|÷(R+S)]×100. […] Even under optimal storage and handling conditions to minimize exposure to moisture, a small degree of racemization (i.e., approximately 2%) was observed. Recrystallization was effective to improve enantiomeric purity to arrive at a product having an illustrative chiral purity as described above. […] The recrystallized (S)-AV 1013.HCl contained approximately 25 mole percent alcohol (less than about 10% by weight) even when dried at 50° C. Thus, it appears that the resultant product is formed as a solvate under the recrystallization and drying conditions employed.
# [3] = Dog pharmacokinetics of the enantiomers after oral dosing of racemic AV1013; assay type: in vivo
# Description: Three male beagle dogs were dosed orally with 10 mg/kg racemic AV1013 via gavage. AV1013 was dissolved in water at 5 mg/ml and dosed via gavage at a volume of 2 ml/kg. Blood samples were collected via the jugular vein at 5, 15 and 30 minutes, 1, 2, 4, 6, 8, and 24 hours post dosing.
# (§1) A sensitive and specific chiral HPLC/MS/MS bioanalytical method for the detection of (S)-AV1013 and (R)-AV1013 enantiomers in rat and dog plasma was utilized. AV1013 enantiomers and the internal standard (AV1040, an analog of AV1013) were isolated from plasma by protein precipitation induced by acetonitrile. After centrifugation to sediment the proteins, the supernatant fractions were analyzed by high performance liquid chromatography (LC) in conjunction with a triple quadrupole mass spectrometer that used electrospray ionization in tandem with positive ionization (MS/MS) according to the conditions below. The LLOQ (lower level of quantitation) was typically <3 ng/mL.
# (§2) Analysis of pharmacokinetic parameters was performed for each enantiomer via LC/MS bioanalytics and WinNonlin™ analysis (version 4.0.1; Pharsight Corp., Mountain View, Calif.), commercial software designed for the analysis of PK data. The PK modeling was based on a non-compartmental model with gradual input into the central compartment. Computation of the area under the curve (AUC) was based on the sum of trapezoidal areas for the plotted plasma concentration-time data. AUC and associated parameters were estimated by log-linear regression analysis of the terminal phase.
# [4] = Rat pharmacokinetics of the enantiomers after oral dosing of racemic AV1013; assay type: in vivo
# Description: Three male Sprague-Dawley rats were dosed orally via gavage with 25 mg/kg racemic AV1013 dissolved in water. Serial blood samples were collected from the tail vein at 5, 15, and 30 min, 1, 3, and 6 hours post dosing. Samples were processed for plasma via centrifugation and plasma samples were stored frozen prior to analysis.
# as §1, §2
# [5] = target: T1, rhMIF (recombinant human Macrophage migration Inhibitory Factor) (Homo sapiens, UniProt P14174); assay: MIF-induced migration of human peripheral blood monocytes (PBMCs); assay type: cell-based; details: rhMIF 90 nM, dilution series of inhibitor
# T1 sequence (P14174 2-115 limits assumed): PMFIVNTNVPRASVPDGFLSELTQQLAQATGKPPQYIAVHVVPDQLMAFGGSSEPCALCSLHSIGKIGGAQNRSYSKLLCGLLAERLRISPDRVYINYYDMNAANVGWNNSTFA
# Description: The chemo attractant activities of rhMIF (recombinant human Macrophage migration Inhibitory Factor) and the effect of inhibitors were measured using human peripheral blood monocytes (PBMCs) isolated from whole blood by centrifugation on Histopaque-1077 (Sigma). The cells were washed in RPMI-1640, diluted to 1×10^6 cells/ml and analyzed immediately. These assays were carried out in 24 well tissue culture plates utilizing 8.0 μm cell culture inserts (Falcon). Recombinant hMIF (90 nM), diluted in RPMI was placed in the cells of a 24 well plate with or without inhibitor (10-fold molar excess or dilution series) and allowed to incubate for 30 min at 37° C., 5% CO2. Washed human monocytes were added to the upper chamber of 8.0 μm cell culture inserts and allowed to incubate for 3 hrs at 37° C., 5% CO2. Cells that migrate through the membrane were fixed in methanol and stained with Geimsa, prior to cell counting using light microscopy.
# Results are expressed as the mean number of cells counted per high power field for each of two replicates to obtain statistically significant data. (Legend: −Star=no human MIF, Skull=no human MIF+10 uM (S)-AV1013. See FIGS. 5A and 5B.
# formalin paw model = assay: Inflammatory pain model (formalin paw model) in mice; assay type: in vivo; details: mice, 300 mg/kg p.o. 60 min before the test
# Description: The model employed is described in detail by Wheeler-Aceto et al (Psychopharmacology, 104, p 35-44, (1991)). Briefly, mice were given an intraplantar injection of 5% formalin (25 μl) into the posterior left paw. […] Mice were briefly observed at 1 minute intervals between 15 and 50 minutes after the injection of formalin and the number of times mice were observed licking the injected paw was recorded. 10 mice were studied in each group. The test was performed blind.
# AV1013-S was evaluated at 3 doses (10, 25 and 50 mg/kg), administered p.o. 60 minutes before the test (i.e. 45 minutes before formalin), and compared with a vehicle control group. Gabapentin (300 mg/kg p.o.), administered under the same experimental conditions, was used as reference substance. The experiment therefore included 5 groups.
# Data were analyzed by comparing treated groups with vehicle control using unpaired Mann-Whitney U tests.
# [6] = beagle dog, oral 10 mg/kg racemic AV1013, plasma
# [7] = dog, oral dosing of racemate, rounded values
# [8] = oral 25 mg/kg racemic AV1013, plasma
# [9] = oral dosing of racemate, rounded values
smiles,measurement,setting,value
"CC(N)C(=O)c1c(C(C)C)nn2ccccc12 (racemic) [AV1013, 2-amino-1-(2-isopropylpyrazolo[1,5-a]pyridin-3-yl)propan-1-one]",in vivo activity in a rat model of neuropathic pain,[1],significant in vivo activity
same,inhibition of the Rolipram binding site,Rolipram binding site,43%
same,stability / racemization in solution,"[2]; free base (or hydrochloride salt where stated), in solution",unstable
CC(C)c1nn2ccccc2c1C(=O)[C@@H](C)N [(R)-AV1013],in vivo activity in a rat model of neuropathic pain,[1],little or no in vivo activity
same,attenuation of mechanical allodynia (50% paw withdrawal threshold),"[1]; rat CCI, oral 100 mg/kg, 2 hours post-dosing",essentially no activity
same,AUC last,[3]; [6],7640 ng·h/mL
same,Cmax,[3]; [6],1140 ng/mL
same,calculated area under the curves (AUC),[3]; [7],7600 ng·h/mL
same,mean peak plasma levels (Cmax),[3]; [7],1100 ng/mL
same,AUC last,[4]; [8],340 ng·h/mL
same,Cmax,[4]; [8],190 ng/mL
same,calculated area under the curves (AUC),[4]; [9],300 ng·h/mL
same,mean peak plasma levels (Cmax),[4]; [9],200 ng/mL
same,antagonism of MIF-induced cell migration,[5],antagonize MIF-induced macrophage migration in a dose-dependent fashion; also recorded: antagonize MIF-induced mononuclear cell migration in a similar dose dependent fashion
"CC(C)c1nn2ccccc2c1C(=O)[C@H](C)N.Cl [(S)-AV1013.HCl, (S)-2-Amino-1-(2-isopropylpyrazolo[1,5-a]pyridin-3-yl)propan-1-one hydrochloride]",degree of racemization on storage,"[2]; hydrochloride salt, optimal storage and handling conditions to minimize exposure to moisture",approximately 2%
"NCC1(CC(=O)O)CCCCC1 [Gabapentin, reference compound]",% Change from Control,formalin paw model,−83%
same,Licking Score (Mean +/− SEM),formalin paw model; p < 0.01,2.6 +/− 0.8 *
